Results published in patent US20230346817A1, “COMPOSITION AND USE OF SGLT-2 INHIBITOR AND ANGIOTENSIN RECEPTOR BLOCKERS” (Beijing Creatron Institute of Pharmaceutical Research Co. …, priority 2020, published 2023).

Test: Related substances of active ingredient A, samples placed at 50° C. for 10 days
Type: physicochemical
Conditions: mixed powders
Experimental: The raw and auxiliary materials were weighed based on the formulation amount and mixed well. The mixed powder of each example was wrapped separately in a clean weighing paper, sealed in an aluminum foil bag, and placed at 50° C. for 10 days. Samples were then taken, determined for related substances and compared with the comparative example.

CCOc1ccc(Cc2cc([C@@H]3O[C@H](CO)[C@@H](O)[C@H](O)[C@H]3O)ccc2Cl)cc1 [active ingredient B, Dapagliflozin]
Related substances of active ingredient B after placed under the influencing factor: no increase in impurities
